Each block holds one compound with its values, some of them ahead of it.
How the values were obtained:
MRP1 = assay: Quantitative real-time PCR, mRNA level of MRP1; type: cell-based, Human; details: Caco-2 cells, 200 μM, 2 h, vs control
Description: (§1) Cell culture and treatment were performed as described above in 2.6. Total RNA was extracted from Caco-2 cells by the cell RNA extraction kit, and then reverse-transcribed by the cDNA synthesis kit. Gene amplification and quantitative detection were performed as previously described (Ai et al., [2019]). Target mRNA levels were normalized to β-actin mRNA levels. Data were calculated by the 2^−ΔΔCT method.

MRP3 = assay: Quantitative real-time PCR, mRNA level of MRP3; type: cell-based, Human; details: Caco-2 cells, 200 μM, 2 h, vs control
Description: as §1

P-gp [1] = assay: Quantitative real-time PCR, mRNA level of P-gp; type: cell-based, Human; details: Caco-2 cells, 200 μM, 2 h, vs control
Description: as §1

P-gp [2] = assay: Western blot, protein level of P-gp; type: cell-based, Human; details: Caco-2 cells, 200 μM, 2 h, normalized to β-actin, vs control
Description: Cell lysates were prepared with RIPA lysis buffer. […] Cell protein (50 μg) was loaded onto SDS polyacrylamide gel (5% stacking gel; 8% separating gel) and separated by electrophoresis for 1.5 h at 20 mA. Next, the separated proteins were transferred onto the PVDF membrane in ice bath for 1.5 h at 120 mA, followed by blocking the membrane with 5% nonfat milk in Tris-buffered saline containing 0.1% Tween-20 (TBST) for 1 h at room temperature. After blocking, the blots were incubated overnight at 4 °C with the primary antibody of P-gp, MRP1, MRP2, MRP3, BCRP (1:200) or β-actin (1:40,000), followed by washing with TBST and incubation for 1 h at room temperature with HRP-conjugated goat anti-rabbit (1:3,000). Immunoreactive proteins were visualized by the ECL detection system, band intensity was quantified by Image Lab (Bio-Rad, CA, USA), and the protein contents were normalized to β-actin.

Caco-2 cells = assay: Intracellular accumulation of theaflavin monomers; details: 200 μM theaflavins, 2 h incubation, 37 °C
Description: Caco-2 cells were seeded at a density of 8 × 10^4 cells per well in 6-well plates (Ni et al., [2020]). After differentiation over a period of 21 days, cells were incubated with 2.0 mL of 200 μM theaflavins at 37 °C. After 2 h incubation, phosphate buffer was added to wash cells in the plate. Then, cell lysates were prepared with RIPA lysis buffer containing 1 mM PMSF as a protease inhibitor and centrifugated at 12,000 rpm for 30 min. Total protein contents were quantified using a BCA estimation kit according to the manufacturer’s instructions (Beyotime). Theaflavins were quantified by HPLC analysis and the intracellular accumulation was expressed as µg theaflavin/mg protein.
Theaflavins were characterized by high performance liquid chromatography (HPLC, Agilent 1100VL, Agilent Technologies Inc., CA, USA). Briefly, samples were extracted with 70% methanol, centrifuged at 685 × g for 10 min, and filtered through a 0.45 μm membrane (Nylon 66). […] Samples were eluted with a gradient of solvent A (100 mL water with 9 mL acetonitrile and 2 mL acetic acid) and B (100 mL acetonitrile with 17.8 mL water and 2 mL acetic acid) as follows: 0–5 min, 95% A; 5–10 min, 90% A; 10–20 min, 70% A; 20–25 min, 65% A; 25–30 min, 70% A; 30–35 min, 100% A. Theaflavins were detected using an ultraviolet detector at a wavelength of 278 nm.

[3] = set-up: method as in Henning et al., 2006; details: mice treated with decaffeinated black tea (50 mg/g diet) for two weeks; ref Henning et al., 2006; cited from earlier work
BCRP = assay: Quantitative real-time PCR, mRNA level of BCRP; type: cell-based, Human; details: Caco-2 cells, 200 μM, 2 h, vs control
Description: as §1

[4] = 2 h, 200 μM
Description: Standard stock solutions of each theaflavin were diluted with HBSS and DMEM respectively, obtaining final test solutions of 200 μM. The recovery rate of theaflavins in HBSS and in DMEM, in the absence of cells, was analyzed by HPLC after incubation at 37 °C for 0.5, 1, 2, 3, 4, 8, 12, and 24 hours, respectively. The recovery rate was used to measure the stability and calculated as follows: (2) Recovery rate=Ct/C0× 100% where Ct is the final concentration at different incubation time (μM); C0, the initial concentration (μM).
Theaflavins were characterized by high performance liquid chromatography (HPLC, Agilent 1100VL, Agilent Technologies Inc., CA, USA). Briefly, samples were extracted with 70% methanol, centrifuged at 685 × g for 10 min, and filtered through a 0.45 μm membrane (Nylon 66). The separation was performed by an ODS reversed-phase column (4.6 mm i.d.×250 mm, SB-C18, Agilent Technologies Inc., CA, USA) at a flow rate of 0.7 mL/min. Chromatographic conditions were slightly modified according to China National Standard (GB/T 30483-2013, GAQSIQ, P. R. China, 2013). Samples were eluted with a gradient of solvent A (100 mL water with 9 mL acetonitrile and 2 mL acetic acid) and B (100 mL acetonitrile with 17.8 mL water and 2 mL acetic acid) as follows: 0–5 min, 95% A; 5–10 min, 90% A; 10–20 min, 70% A; 20–25 min, 65% A; 25–30 min, 70% A; 30–35 min, 100% A. Theaflavins were detected using an ultraviolet detector at a wavelength of 278 nm.

SMILES: O=C(O[C@@H]1Cc2c(O)cc(O)cc2O[C@@H]1c1cc(O)c(=O)c2c(O)c(O)cc([C@H]3Oc4cc(O)cc(O)c4C[C@H]3O)c2c1)c1cc(O)c(O)c(O)c1 [TF3G, theaflavin-3-gallate]
increase of mRNA level of MRP1 (MRP1): 154.97% | increase of mRNA level of MRP3 (MRP3): 34.01% | increase of mRNA level of P-gp (P-gp [1]): 44.45% | increase of protein level of P-gp (P-gp [2]): 23.94%

Contents of theaflavins absorbed in Caco-2 cells (Caco-2 cells): -
SMILES: O=C(O[C@@H]1Cc2c(O)cc(O)cc2O[C@@H]1c1cc(O)c(O)c2c(=O)c(O)cc([C@H]3Oc4cc(O)cc(O)c4C[C@H]3O)cc12)c1cc(O)c(O)c(O)c1 [TF3’G, theaflavin-3’-gallate]

degraded due to the structural instability [4]: 11.6%
SMILES: O=C(O[C@@H]1Cc2c(O)cc(O)cc2O[C@@H]1c1cc(O)c(=O)c2c(O)c(O)cc([C@H]3Oc4cc(O)cc(O)c4C[C@H]3OC(=O)c3cc(O)c(O)c(O)c3)c2c1)c1cc(O)c(O)c(O)c1 [TFDG, theaflavin-3, 3’-digallate]
amount in tissue samples [3]: less than 1 nmol/g tissue | increase of mRNA level of BCRP (BCRP): 35.49%

Source: PMC8409943, “Study on mechanism of low bioavailability of black tea theaflavins by using Caco-2 cell monolayer” (Drug Delivery, 2021)
